Assays:
[1] = Lipophilicity, logD of compound at pH 7.5; assay type: physicochemical; conditions: buffer
[2] = target: Keap1/Nrf2 (Homo sapiens, UniProt Q14145)
Chain of Keap1/Nrf2 (Q16236 whole entry): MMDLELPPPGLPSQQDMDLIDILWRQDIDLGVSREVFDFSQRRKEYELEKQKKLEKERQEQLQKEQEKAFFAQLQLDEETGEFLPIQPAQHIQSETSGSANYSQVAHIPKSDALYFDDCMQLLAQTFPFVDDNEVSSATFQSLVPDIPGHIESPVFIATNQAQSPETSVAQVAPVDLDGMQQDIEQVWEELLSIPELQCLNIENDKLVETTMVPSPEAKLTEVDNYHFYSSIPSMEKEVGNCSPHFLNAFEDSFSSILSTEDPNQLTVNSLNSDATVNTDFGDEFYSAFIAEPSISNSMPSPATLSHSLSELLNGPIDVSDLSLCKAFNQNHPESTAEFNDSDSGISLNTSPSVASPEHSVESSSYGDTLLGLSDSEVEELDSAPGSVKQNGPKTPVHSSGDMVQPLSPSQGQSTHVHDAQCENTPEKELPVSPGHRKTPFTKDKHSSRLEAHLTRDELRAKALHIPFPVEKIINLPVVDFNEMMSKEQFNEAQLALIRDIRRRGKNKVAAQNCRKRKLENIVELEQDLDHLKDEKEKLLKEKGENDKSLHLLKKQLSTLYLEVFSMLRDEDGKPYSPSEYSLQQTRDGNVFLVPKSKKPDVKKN
Chain of Keap1/Nrf2 (Q14145 whole entry): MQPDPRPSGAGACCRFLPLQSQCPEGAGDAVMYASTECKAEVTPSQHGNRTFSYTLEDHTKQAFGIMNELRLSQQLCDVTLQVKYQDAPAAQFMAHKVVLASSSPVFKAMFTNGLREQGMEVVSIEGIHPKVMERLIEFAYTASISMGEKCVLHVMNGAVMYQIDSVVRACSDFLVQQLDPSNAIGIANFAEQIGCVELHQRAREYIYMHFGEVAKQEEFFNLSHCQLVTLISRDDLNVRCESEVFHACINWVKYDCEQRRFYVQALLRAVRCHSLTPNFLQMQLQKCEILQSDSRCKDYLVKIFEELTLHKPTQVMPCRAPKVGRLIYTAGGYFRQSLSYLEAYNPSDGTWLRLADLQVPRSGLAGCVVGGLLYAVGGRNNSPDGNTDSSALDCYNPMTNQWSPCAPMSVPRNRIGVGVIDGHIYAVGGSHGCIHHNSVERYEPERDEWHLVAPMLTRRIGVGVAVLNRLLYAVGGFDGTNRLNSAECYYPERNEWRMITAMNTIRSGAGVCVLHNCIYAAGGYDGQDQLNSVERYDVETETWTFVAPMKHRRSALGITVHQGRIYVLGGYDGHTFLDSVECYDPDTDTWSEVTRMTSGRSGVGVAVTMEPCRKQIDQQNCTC

| Kd [2] [µM] | Compound | logD [1] |
| --- | --- | --- |
| – | CC(=O)N1CCC[C@H]1C(=O)N[C@@H]1COC(=O)c2ccccc2CSC[C@H](C(=O)N(C)C)NC1=O | 0.43 |
| > 500 | CC(=O)N1CCC[C@H]1C(=O)N[C@@H]1CNC(=O)c2ccccc2COC[C@H](C(=O)N(C)C)NC1=O | – |

Source: ChEMBL document CHEMBL5042541 (J Med Chem, 2022)
